Results published in PubChem BioAssay (NCI).
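Briefly, cells in 96-well plates were exposed to five compound concentrations for 48 h, and endpoints were estimated by linear interpolation. GI50 is the concentration that inhibits growth by half. The concentration for full growth arrest is given as TGI.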

System: MDA-MB-231 breast
Experiment: NCI-60 cell line screen, 48 h

| Compound | TGI [µM] |
| --- | --- |
| Cc1nc(C(N)=S)sc1/C(CC(=O)C(=O)Nc1cccc2ccc(O)cc12)=N\NC(=O)c1ccncc1 | > 100 |
| Oc1cc2c3c(c1)c1cc4c(cc1c[n+]3CC2)OCO4 | 29.9 |
| Cc1cn(C2CC(N(O)C(N)=O)C(CO)O2)c(=O)[nH]c1=O (centres undefined) | > 100 |
| O=C(O)c1cccc2c1/C(=N/Nc1ccccc1)CC2 | > 100 |
| O=C(Cc1cccs1)N[C@@H]1C(=O)N2C(C(=O)OC(c3ccccc3)c3ccccc3)=C(CO)CS[C@H]12 | > 100 |
| Cc1ccccc1-n1c(=O)c2ncn(CCCl)c2n(-c2ccccc2C)c1=S | > 100 |

System: HOP-62 NSCLC
Experiment: NCI-60 cell line screen, 48 h

| Compound | TGI [µM] |
| --- | --- |
| O=c1[nH][nH]c(=O)n1Cc1ccccc1Cn1c(=O)[nH][nH]c1=O | > 100 |
| CC1C=C(CCCCCCCCCCCC[C@@H](O)[C@@H]2CC[C@@H]([C@@H]3CC[C@@H](C(O)CCCCCCCCCCCCC4=C[C@H](C)OC4=O)O3)O2)C(=O)O1 (some centres undefined) | > 100 |
| CCNC(=S)N/N=C/c1cc([N+](=O)[O-])ccc1O | > 100 |
| COc1cc([C@@H]2OCC3C(c4ccc5c(c4)OCO5)OCC32)cc(OC)c1OC (some centres undefined) | > 100 |
| CCOC(=O)c1c2ccccc2n2c(N)c(C(N)=O)nnc12 | 69.1 |
| Cc1cc(N(CCC#N)CCC#N)ccc1/C(N=Nc1ccc(Cl)cc1)=N\NC(=O)c1ccccc1 | > 100 |
| CCc1ccc(CCN2CCCCC2)nc1 | > 100 |
| N#CN=C(N(Cc1ccccc1)Cc1ccccc1)N(Cc1ccccc1)Cc1ccccc1 | > 100 |
| CNC(=O)C(C)C1CCC2(C)C=CC(=O)C(C)=C2C1O (centres undefined) | > 100 |
| CC(C)C1/C(=N/O)CC(c2ccccc2)N(N=O)C1c1ccccc1 (centres undefined) | > 100 |
| CC1(C)N=C(/C(Cl)=[N+](/[O-])C(=O)c2ccc(F)cc2)C(C)(C)N1O | 40 |
| COC(=O)[C@H](Cc1c[nH]c2ccccc12)NP(=O)(O)OCC1C=CC(n2cc(C)c(=O)[nH]c2=O)O1 (some centres undefined) | > 100 |
| COc1cc(/C=C2\S/C(=N/Nc3nc(-c4ccc(Br)cc4)cs3)NC2=O)cc(OC)c1OC | 30.3 |
| CCCNC1=C2CC(C)CC(OC)[C@@H](O)[C@H](C)/C=C(\C)C(OC(N)=O)C(OC)/C=C\C=C(/C)C(=O)NC(=CC1=O)C2=O (some centres undefined) | 44.4 |
| C[n+]1c2ccccc2c(/C=N\NS(=O)(=O)c2ccc(O)c(C(=O)O)c2)c2ccccc21 | > 100 |
| O=C(Nc1ccc(C2=NCCN2)cc1)c1cncc(C(=O)Nc2ccc(C3=NCCN3)cc2)c1 | > 100 |
| CCC1(O)CC2CC(=O)OC2C1O (centres undefined) | > 100 |
| Cc1ccc(SCC(CSCCO)OCn2cnc3c2NC(N)=NC32OCCO2)cc1 (centres undefined) | > 100 |
| CC(=O)Nc1ccc(-c2nnc(SCC(=O)Nc3ccc([N+](=O)[O-])cc3)o2)cc1 | 53.4 |
| N.N.N.N.O=[N+]([O-])[O-].[Co+3].[N-]=[N+]=[N-].[N-]=[N+]=[N-] | > 100 |
| N#CC1=C(N)N(c2ccccc2)C(c2ccco2)C1(C#N)C#N (centres undefined) | 54.3 |
| Cc1cc(=O)[nH]c(NN2C(Cl)C(=O)C2c2ccccc2O)n1 (centres undefined) | > 100 |

| Compound | TGI [µM] |
| --- | --- |
| CC(C)c1ccc(/C=C2/C=C(c3ccc4ccccc4c3)OC2=O)cc1 | > 100 |
| CC[C@@]1(C[C@H]2C[C@@]3(C(=O)OC)c4[nH]c5ccccc5c4CCN3C2=O)COC2(CCCCC2)O1 | > 100 |
| COc1ccc2c(=O)c(O)c(-c3ccc(OC)c(OC)c3)oc2c1 | 36.1 |
| COc1ccc(C(OCC2OC(n3cc(C)c(=O)[nH]c3=O)CC2n2cc(Cn3cc(I)c(=O)[nH]c3=O)nn2)(c2ccccc2)c2ccccc2)cc1 (centres undefined) | > 100 |
| O=S1(=O)NC(=NCc2c[nH]c3ccccc23)N(c2ccccc2)c2ccncc21 | > 100 |
| CC(C)CCCCCCCCCCCCC(=O)NCC(=O)NC1C(C)OC(Nc2ncnc3c2ncn3C)C(O)C1O (centres undefined) | > 34.2 |
| C=C(C1=CC(=O)C(C)(C)O1)[C@@H]1CC=C([C@@H]2CC[C@H]3[C@@]2(C)CC[C@H]2C(C)(C)C(=O)[C@H](O)C[C@]32C)[C@H](O)O1 | 8.33 |
| CC1=CC2C(O1)C1C(=O)C=CC(=O)C1=CC2[N+](=O)[O-] (centres undefined) | 48.7 |
| Cc1cn(C2CC(n3cc(Cn4cc(I)c(=O)[nH]c4=O)nn3)C(CO)O2)c(=O)[nH]c1=O (centres undefined) | > 100 |
| CNC(=O)OCC1=C(COC(=O)NC)C(C)N(c2ccc(OC)cc2)C1 (centres undefined) | > 100 |
| CCC12C=CCN3CCC4(C(=C(C(=O)OC)[C@@H]1O)Nc1ccccc14)C32 (some centres undefined) | 4.12 |
| O=C1CCC(=O)N1n1c(Cc2ccccc2)n[nH]c1=O | > 100 |
| O=C(O)CN(CC(=O)O)C1CCCCC1N(CC(=O)O)CC(=O)NCCN=C=S (centres undefined) | > 100 |
| Cc1nc(C(N)=S)sc1/C(CC(=O)C(=O)Nc1cccc2ccc(O)cc12)=N\NC(=O)c1ccncc1 | > 100 |
| Oc1cc2c3c(c1)c1cc4c(cc1c[n+]3CC2)OCO4 | > 100 |
| Cc1cn(C2CC(N(O)C(N)=O)C(CO)O2)c(=O)[nH]c1=O (centres undefined) | > 100 |
| O=C1CCC23CC(C=CC=C12)n1c(=O)n(-c2ccccc2)c(=O)n13 (centres undefined) | > 100 |
| [N-]=[N+]=Nc1cc(=O)oc2ccccc12 | > 100 |
| CC(=O)NC1=C(NCCC(C)C)C(=O)c2ccccc2C1=O | > 50 |
| O=C(O)c1cccc2c1/C(=N/Nc1ccccc1)CC2 | > 100 |
| Cc1ccccc1-n1c(=O)c2ncn(CCCl)c2n(-c2ccccc2C)c1=S | > 100 |

System: COLO 205 colon
Experiment: NCI-60 cell line screen, 48 h

| Compound | TGI [µM] | GI50 [nM] |
| --- | --- | --- |
| O=c1[nH][nH]c(=O)n1Cc1ccccc1Cn1c(=O)[nH][nH]c1=O | > 100 | – |
| CC1C=C(CCCCCCCCCCCC[C@@H](O)[C@@H]2CC[C@@H]([C@@H]3CC[C@@H](C(O)CCCCCCCCCCCCC4=C[C@H](C)OC4=O)O3)O2)C(=O)O1 (some centres undefined) | > 100 | – |
| CCNC(=S)N/N=C/c1cc([N+](=O)[O-])ccc1O | > 100 | – |
| COc1cc([C@@H]2OCC3C(c4ccc5c(c4)OCO5)OCC32)cc(OC)c1OC (some centres undefined) | > 100 | – |
| CCOC(=O)c1c2ccccc2n2c(N)c(C(N)=O)nnc12 | > 100 | – |
| Cc1cc(N(CCC#N)CCC#N)ccc1/C(N=Nc1ccc(Cl)cc1)=N\NC(=O)c1ccccc1 | 94.1 | – |
| CCc1ccc(CCN2CCCCC2)nc1 | > 100 | – |
| N#CN=C(N(Cc1ccccc1)Cc1ccccc1)N(Cc1ccccc1)Cc1ccccc1 | > 100 | – |
| CNC(=O)C(C)C1CCC2(C)C=CC(=O)C(C)=C2C1O (centres undefined) | > 64.7 | – |
| CC(C)C1/C(=N/O)CC(c2ccccc2)N(N=O)C1c1ccccc1 (centres undefined) | 31 | – |
| CC1(C)N=C(/C(Cl)=[N+](/[O-])C(=O)c2ccc(F)cc2)C(C)(C)N1O | 38.2 | – |
| COC(=O)[C@H](Cc1c[nH]c2ccccc12)NP(=O)(O)OCC1C=CC(n2cc(C)c(=O)[nH]c2=O)O1 (some centres undefined) | > 100 | – |
| COc1cc(/C=C2\S/C(=N/Nc3nc(-c4ccc(Br)cc4)cs3)NC2=O)cc(OC)c1OC | 71.3 | – |
| CCCNC1=C2CC(C)CC(OC)[C@@H](O)[C@H](C)/C=C(\C)C(OC(N)=O)C(OC)/C=C\C=C(/C)C(=O)NC(=CC1=O)C2=O (some centres undefined) | 12.7 | 14.1 |
| O=C(Nc1ccc(C2=NCCN2)cc1)c1cncc(C(=O)Nc2ccc(C3=NCCN3)cc2)c1 | > 100 | – |
| CCC1(O)CC2CC(=O)OC2C1O (centres undefined) | > 100 | – |
| CC(=O)Nc1ccc(-c2nnc(SCC(=O)Nc3ccc([N+](=O)[O-])cc3)o2)cc1 | 27.3 | – |
| N.N.N.N.O=[N+]([O-])[O-].[Co+3].[N-]=[N+]=[N-].[N-]=[N+]=[N-] | > 100 | – |
| N#CC1=C(N)N(c2ccccc2)C(c2ccco2)C1(C#N)C#N (centres undefined) | 39.2 | – |
| Cc1cc(=O)[nH]c(NN2C(Cl)C(=O)C2c2ccccc2O)n1 (centres undefined) | > 76.8 | – |
| CC(C)c1ccc(/C=C2/C=C(c3ccc4ccccc4c3)OC2=O)cc1 | 76.1 | – |
| CC[C@@]1(C[C@H]2C[C@@]3(C(=O)OC)c4[nH]c5ccccc5c4CCN3C2=O)COC2(CCCCC2)O1 | > 100 | – |

| Compound | TGI [µM] | GI50 [nM] |
| --- | --- | --- |
| COc1ccc2c(=O)c(O)c(-c3ccc(OC)c(OC)c3)oc2c1 | > 100 | – |
| COc1ccc(C(OCC2OC(n3cc(C)c(=O)[nH]c3=O)CC2n2cc(Cn3cc(I)c(=O)[nH]c3=O)nn2)(c2ccccc2)c2ccccc2)cc1 (centres undefined) | > 100 | – |
| O=S1(=O)NC(=NCc2c[nH]c3ccccc23)N(c2ccccc2)c2ccncc21 | > 100 | – |
| CC(C)CCCCCCCCCCCCC(=O)NCC(=O)NC1C(C)OC(Nc2ncnc3c2ncn3C)C(O)C1O (centres undefined) | > 100 | – |
| COc1ccc(CNc2nc(NCc3ccc(OC)c(OC)c3)nc(NC3CCCCC3)n2)cc1 | 21 | – |
| C=C(C1=CC(=O)C(C)(C)O1)[C@@H]1CC=C([C@@H]2CC[C@H]3[C@@]2(C)CC[C@H]2C(C)(C)C(=O)[C@H](O)C[C@]32C)[C@H](O)O1 | 3.51 | – |
| CC1=CC2C(O1)C1C(=O)C=CC(=O)C1=CC2[N+](=O)[O-] (centres undefined) | 21.2 | – |
| Cc1cn(C2CC(n3cc(Cn4cc(I)c(=O)[nH]c4=O)nn3)C(CO)O2)c(=O)[nH]c1=O (centres undefined) | > 100 | – |
| CNC(=O)OCC1=C(COC(=O)NC)C(C)N(c2ccc(OC)cc2)C1 (centres undefined) | > 100 | – |
| CCC12C=CCN3CCC4(C(=C(C(=O)OC)[C@@H]1O)Nc1ccccc14)C32 (some centres undefined) | 3.22 | – |
| O=C1CCC(=O)N1n1c(Cc2ccccc2)n[nH]c1=O | > 100 | – |
| Cc1nc(C(N)=S)sc1/C(CC(=O)C(=O)Nc1cccc2ccc(O)cc12)=N\NC(=O)c1ccncc1 | > 100 | – |
| Oc1cc2c3c(c1)c1cc4c(cc1c[n+]3CC2)OCO4 | > 40.6 | – |
| Cc1cn(C2CC(N(O)C(N)=O)C(CO)O2)c(=O)[nH]c1=O (centres undefined) | > 100 | – |
| COc1nc(N)c(C(=O)CCl)c(=O)n1C | 30.1 | – |
| O=C1CCC23CC(C=CC=C12)n1c(=O)n(-c2ccccc2)c(=O)n13 (centres undefined) | > 100 | – |
| [N-]=[N+]=Nc1cc(=O)oc2ccccc12 | > 100 | – |
| CC(=O)NC1=C(NCCC(C)C)C(=O)c2ccccc2C1=O | > 50 | – |
| O=C(Cc1cccs1)N[C@@H]1C(=O)N2C(C(=O)OC(c3ccccc3)c3ccccc3)=C(CO)CS[C@H]12 | > 100 | – |
| O=C([O-])CC(=O)[O-].O=C([O-])CC(=O)[O-].[K+].[Pd+2] | > 100 | > 100000 |
| Cc1ccccc1-n1c(=O)c2ncn(CCCl)c2n(-c2ccccc2C)c1=S | > 100 | – |
